# Measurements as given in PMC4633953, “FR171456 is a specific inhibitor of mammalian NSDHL and yeast Erg26p” (Nature Communications, 2015).
# What was measured:
# F. solani = experiment: Combination with clinical antifungal agents (Loewe synergy, growth by OD530); type: cell-based; conditions: in presence of FR171456 6.67 and 20 μM
# Method: incubated for 24 h in increasing combined doses of FR171456 and Amphotericin B, and growth
# assessed by OD530. (a) Normalised growth rates plotted as % inhibition of growth. (b) Loewe excess
# heat map showing difference between predicted scores based upon the addition of each agent
# alone and the actual values detected plotted as difference in % of inhibition. (c) Loewe isobologram
# - a comparison of the doses of each compound needed to achieve 50% inhibition of proliferation.
# [1] = test system: S. cerevisiae (BY4743 strain); experiment: Yeast growth inhibition dose response (OD600); type: cell-based; conditions: Saccharomyces cerevisiae, 14 h, BY4743, 14 h, 30 °C, YPD, 2% DMSO
# Method: Figure 2 FR171456 targets Erg26p in S. cerevisiae. (a) Structures of FR171456, and two related triterpenes (compound 1, compound 2). (b) Duplicate 12-point Dose response curves of wild-type diploid yeast with three compounds in a. Strain BY4743 was grown for 14 h at 30 °C in YPD media with 2% DMSO containing a dilution series of FR171456: black; Compound-1: light grey circles, and Compound-2: light grey squares. Y axis: OD600 absorbance indicating yeast growth, x axis: compound concentrations (log10 μM). (c) Haploinsufficiency and homozygous profiling (HIP resp. HOP) for FR171456 at 4 μM. Each mutant strain in the pool is represented by a circle (non-essential genes) or a square (essential genes). The, y axis represents strain sensitivity and x axis represents z-score (specificity). In (d), the z-scores of the HIP pool strains (y axis) plotted against increasing doses of FR171456 (x axis; μM). (e) Relative compound sensitivity profile of the erg26Δ/ERG26 strain across HIP experiments performed with 1,800 diverse small molecule yeast proliferation inhibitors. TEXT PRINTED IN THE PICTURE: (a) FR171456: MW 516.68; S.c. […] IC50 >200 μM | (a) Compound 2: MW 532.68; S.c. IC50 >200 μM
# Erg26p [2] = target: T1, Erg26p (Saccharomyces cerevisiae, UniProt P53199); experiment: In vitro microsomal Erg26p activity assay (GC-MS)
# T1 sequence (P53199 1-349): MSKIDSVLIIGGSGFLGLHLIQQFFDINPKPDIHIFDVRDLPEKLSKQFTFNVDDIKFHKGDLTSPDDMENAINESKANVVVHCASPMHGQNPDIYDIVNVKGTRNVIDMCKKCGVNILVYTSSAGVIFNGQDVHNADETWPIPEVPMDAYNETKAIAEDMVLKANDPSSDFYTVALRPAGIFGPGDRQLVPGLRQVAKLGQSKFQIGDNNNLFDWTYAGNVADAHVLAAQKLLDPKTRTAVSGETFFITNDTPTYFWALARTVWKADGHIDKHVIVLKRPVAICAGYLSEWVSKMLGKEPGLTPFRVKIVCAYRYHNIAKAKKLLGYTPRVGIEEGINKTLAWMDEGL
# Method: To test this hypothesis an in vitro microsomal Erg26p activity assay[30] was used. Erg26p activity was directly assessed in the presence of increasing concentrations of FR171456 (10 nM–0.1 mM) in the presence of 150 μM carboxysterol substrate (Fig. 1c) and the cofactor NAD^+ (0.5 mM) followed by GC-MS detection of the product 4α-methyl-cholest-8,24-dien-3-one.
# Wild-type yeast (FL200) microsomes were prepared as follows. Yeast cells were disrupted by glass bead homogenization (0.45-mm diameter) in 100 mM phosphate buffer (pH 7.5) containing 1.5 mM reduced glutathione and 30 mM nicotinamide for 8 min at 0 °C[44]. The cell extract was obtained by centrifugation at 10,000 × g for 20 min. Microsomes were then isolated by centrifuging the cell extract supernatant at 100,000 × g for 90 min. The resulting microsomal pellet was resuspended in 100 mM phosphate buffer (pH 7.5) containing 3 mM reduced glutathione and 20% glycerol (v/v) using an Elvehjem–Potter homogenizer. Yeast microsomes (1.2 mg of protein) were incubated in the presence of 4α-carboxy-4β-methyl-cholest-8,24-dien-3β-ol (50–300 mM) and NAD^+ (0.5 mM) for 35–45 min at 30 °C. After addition of coprostanone (2–6 μg) as internal standard, the reactions were extracted as described previously[12]. The extract was analysed by TLC on silica gel and eluted twice with CH2Cl2. The fraction migrating between a standard of 4-desmethyl-sterone (RF= 0.50) and 4,4-dimethyl-sterone (RF=0.70) was eluted and analysed using a GC-MS spectrometer (Agilent 5973 N).
# In the case of inhibition assays, microsomes were incubated for 35–45 min at 30 °C in the presence of 4α-carboxy-4β-methyl-cholest-8,24-dien-3β-ol (50–300 mM) and a range of inhibitor concentration (0.01–100 μM) from which a dose–response curve was obtained allowing the corresponding I50 values to be determined.
# The GC-MS spectrometer (Agilent 5973 N) was equipped with an ‘on column' injector and a capillary column (30 × 0.25 mm) coated with DB5 (H2 flow rate of 2 ml min^−1). The temperature program included a 30 °C min^−1 increase from 60 °C to 240 °C, and followed by a 2 °C/min increase from 240 °C to 280 °C. The areas of the GC peaks of coprostanone (tR=1.000) and of the produced 4α-methyl-cholest-8,24-dien-3-one (tR=1.139), corrected from endogenous component of the same tR (1.139) determined in the blank (boiled microsomes), allowed the rate of transformation of 4α-carboxy-4β-methyl-cholest-8,24-dien-3β-ol to be measured. Under these conditions, the estimated limit of detection of the 3βHSD/D activity was 0.1 nmol h^−1 mg^−1.
# Erg26p [3] = target: T1, Erg26p; conditions: wild-type yeast Erg26p ref 32; cited from earlier work
# [4] = test system: ergosterol pathway intermediates in C. albicans SC5314; experiment: Focused metabolomics: 13C-labelled ergosterol pathway intermediates in C. albicans; type: cell-based; conditions: increasing doses
# Method: For ^13C- labelling studies, the wild type C. albicans strain SC5314 was obtained from ATCC (Manassas, VA) and was cultured at 30 °C in YPD broth (1% yeast extract, 2% peptone, 2% dextrose) or Synthetic Medium (3% glycerol, 0.1% glucose, 65 mM NH4Cl, 1.7 mM NaCl, 7 mM KH2PO4, 1 mM CaCl2, 0.5 mM MgSO4).
# Approximately 1.25 × 10^8 C. albicans cells from a saturated YPD culture were inoculated into 100 ml Synthetic Medium (SM) and grown at 30 °C to an OD of 1.0. Cells were washed once in modified SM (25 mM KPO4 pH 7.0, with glucose omitted) and suspended to 5 OD600 units per ml in modified SM.
# Labelling reactions were performed in 12-ml glass tubes with PTFE-lined caps (Corning) and containing 1 ml cell suspension (∼6 × 10^7 cells), 10 μl DMSO or 10 μl compound dissolved in DMSO, 12 μl 1M D-Glucose (U^-13C6 glucose), and 10 μl 1 M (1,2^-13C2) sodium acetate (Cambridge Isotope Laboratories, Inc). Before LC-MS analysis, dried lipid extracts were dissolved in 500 μl methanol, vortexed and sonicated for 10 min.
# Squalene, ergosterol, lanosterol and zymosterol were quantified using the tandem mass spectrometer API4000 triple quadrupole (AB Sciex) with atmospheric pressure chemical ionization (APCI), interfaced to an Agilent LC.
# Cells (∼6 × 10^7) and compounds were preincubated 15 min at 30 °C (without shaking) before the addition of labelled substrates. Labelling was performed at 30 °C with shaking for 4 h. Reactions were stopped by adding 1 ml 30% KOH, 1 ml 100% ethanol, and 0.2 ml 2% pyrogallol. Samples were mixed and then heated at 80 °C for 30 min, then cooled to room temperature. Non-saponifiable lipids were extracted two times in petroleum ether, washed with water, dried under nitrogen gas and stored at −80 °C.
# For compound calibration, 2 μM solutions in 0.1% formic acid were directly infused into the mass spectrometer. Ergosterol, lanosterol and zymosterol undergo dehydration and their molecular species are detected as [M+H-H2O]^+ while squalene is detected as [M+H]^+. Supplementary Table 4 lists the multiple reaction monitoring parameters of the sterols and squalene, as well as the ^13C incorporated metabolites. The mass spectrometer source parameters are the following: CUR=40, GS1=60, NC=4.5. TEM=450 CAD=4. A mobile phase of 0.2% formic acid in methanol and isocratic run at 0.4 ml min^−1 was employed to separate the metabolites on a Waters XBridge C18 3.5 μm 2.1 × 50 mm column. The run time was 4.5 min.
compound,measurement,setting,value
"C[C@@H]1[C@H](O)[C@@H](C)/C=C/C=C/C=C/C=C/C=C/C=C/C=C/[C@H](O[C@@H]2O[C@H](C)[C@@H](O)[C@H](N)[C@@H]2O)C[C@@H]2O[C@](O)(C[C@@H](O)C[C@@H](O)[C@H](O)CC[C@@H](O)C[C@@H](O)CC(=O)O[C@H]1C)C[C@H](O)[C@H]2C(=O)O [Amphotericin B, reference compound]",amount of Amphotericin B required for maximal inhibition,F. solani,halved
"C=C(CCC(C)C1CCC2C1(C)CC(O)C13CC14C(=O)CC(O)C(C)(C(=O)NCc1ccccc1)C4C(=O)CC23O)C(C)C [Compound 1, (1R,2aR,3R,5aR,5bS,7aR,8S,9S,11aS,12aR)-N-benzyl-1,5b,9-trihydroxy-2a,8-dimethyl-3-((R)-6-methyl-5-methyleneheptan-2-yl)-7,11-dioxohexadecahydrocyclopenta[a]cyclopropa[e]phenanthrene-8-carboxamide]",IC50,[1],> 200 µM
same,IC50,Erg26p [2],> 500 µM
same,decrease of inhibition relative to FR171456,Erg26p [2],> 300 fold
"C=C(CCC(C)C1CCC2C1(C)CC(O)C13CC14C(=O)CC(O)C(C)(C(=O)O)C4C(=O)CC23O)C(C)CO [Compound 2, (1R,2aR,3R,5aR,5bS,7aR,8S,9S,11aS,12aR)-1,5b,9-trihydroxy-3-((2R)-7-hydroxy-6-methyl-5-methyleneheptan-2-yl)-2a,8-dimethyl-7,11-dioxohexadecahydrocyclopenta[a]cyclopropa[e]phenanthrene-8-carboxylic acid]",IC50,[1],> 200 µM
"CC(C)=CCC[C@@H](C)[C@H]1CC[C@H]2C3=C(CC[C@]12C)[C@@]1(C)CC[C@H](O)[C@@](C)(C(=O)O)C1CC3 (stereo partly drawn) [carboxysterol substrate, 4α-carboxy-4β-methyl-cholest-8,24-dien-3β-ol]",Km,Erg26p [3],550 µM
"OC(Cn1cncn1)(Cn1cncn1)c1ccc(F)cc1F [fluconazole, reference compound]",effect on 13C-labelled ergosterol,[4],decrease
same,effect on 13C-labelled lanosterol,[4],accumulation
same,effect on 13C-labelled zymosterol,[4],decrease
